Experimental data: article PMC12398856, “A GLP-1 analogue optimized for cAMP-biased signaling improves weight loss in obese mice” (Molecular Metabolism, 2025)

Key:
in vivo = details: mouse, sc, t1/2
Procedure: Thus, the PK profiles are an overall average of 8 mice/group and 4 mice/subgroup sampled at each time point. […] Briefly, plasma concentration–time profiles were analyzed by a non-compartmental method (Pharsight Phoenix WinNonLin v.6.4). The terminal half-life (t1/2), maximum plasma concentration (Cmax), time for maximum plasma concentration (tmax), and AUC from zero to last (AUC0-t) were determined.
Briefly, plasma proteins were precipitated by mixing plasma samples with 6 volumes of methanol-containing internal standard in micronic 1.5 mL microcentrifuge tubes, followed by centrifugation for 20 min at 13,000×g. The supernatant was transferred to a 96-well plate and diluted with water containing 0.1% formic acid and mixed thoroughly. Diluted samples were injected into the LC-MS/MS system. […] The mass spectrometric detection was performed on a Thermo Scientific TSQ Quantis triple quadrupole system with electrospray ionization in positive ion mode.

GLP-1R [1] = molecular target: T1, GLP-1R (Homo sapiens, UniProt P43220); assay: CRE-Luciferase reporter assay (cAMP production) in BHK cells expressing GLP-1R; type: cell-based; details: read-out: Log(data) cAMP EC50 (converted)
Target sequence in this assay (P43220 24-463, species assumed): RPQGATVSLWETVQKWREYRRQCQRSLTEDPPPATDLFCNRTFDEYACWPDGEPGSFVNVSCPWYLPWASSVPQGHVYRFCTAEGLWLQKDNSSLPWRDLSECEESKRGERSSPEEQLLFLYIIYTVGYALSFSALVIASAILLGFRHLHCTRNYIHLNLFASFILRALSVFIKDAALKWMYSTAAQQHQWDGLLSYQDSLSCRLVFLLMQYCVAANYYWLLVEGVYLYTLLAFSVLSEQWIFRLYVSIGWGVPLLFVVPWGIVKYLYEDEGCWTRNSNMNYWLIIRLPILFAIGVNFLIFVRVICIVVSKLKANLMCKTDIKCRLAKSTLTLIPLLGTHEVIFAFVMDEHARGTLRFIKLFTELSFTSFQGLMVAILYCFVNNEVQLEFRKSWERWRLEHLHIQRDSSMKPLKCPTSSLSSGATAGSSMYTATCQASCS
Procedure: Briefly, stably transfected baby hamster kidney (BHK) cell lines expressing GLP-1R and firefly luciferase reporter gene linked to the cAMP response element (CRE) were seeded in poly-D-lysine-coated 96 well opaque well tissue culture plates at 5,000 cells per well in growth media, incubated overnight, and washed once in Dulbecco's phosphase-buffered saline (DPBS). To each well was added 50 μL of assay buffer (DMEM without phenol red, 10 mM HEPES, 1 × Glutamax, 1% ovalbumin, 0.1% Pluronic F-68) containing serial dilutions of test compounds. The test plates were incubated at 37 °C for 3 h in a CO2 incubator, then washed once with 100 uL per well of DPBS followed by addition of 100 μL per well of SteadyLite plus reagent (PerkinElmer). The assay plates were covered to protect reagent from light, shaken at 250 rpm at room temperature for 30 min, and read in a microtiter plate reader. EC50 values were calculated using Prism software (GraphPad) as the nonlinear regression of log(compound concentration) vs. response.

GLP-1R [2] = molecular target: T1, GLP-1R; assay: β-arrestin recruitment (Barr) at GLP-1R, Supplemental Table 1; type: cell-based; details: negative log10 of EC50; read-out: Log(data) Barr EC50 (converted)
Target sequence in this assay (P43220 24-463, species assumed): as above

GLP-1R [3] = molecular target: T1, GLP-1R; assay: BRET-based cAMP production assay (CAMYEL sensor) in GLP-1R+ HEK293T cells; type: cell-based; set-up: host or cells: HEK293T (ATCC), transient transfection with Lipofectamine 2000
Target sequence in this assay (P43220 24-463): as the sequence (P43220 24-463, species assumed) above
Procedure: Briefly, HEK293T cells (ATCC) were cultured in Dulbecco's Modified Eagle Medium (DMEM) supplemented with 10% heat-inactivated fetal bovine serum (FBS), 100 IU/mL of penicillin, and 100 mg/mL of streptomycin solution. […] BRET measurements were taken every 60 s using a PHERAstar FS multi-mode microplate reader. Ligand-induced dynamics in GLP-1R signaling or trafficking were measured as subsequent changes relative to baseline (after time point zero). Each experiment was independently performed at least three times, with at least three technical replicates for each group. Positive or negative incremental areas under the curve (iAUC) were calculated and represented for dose–response relationships.

## CC[C@H](C)[C@H](NC(=O)[C@H](Cc1ccccc1)NC(=O)[C@H](CCC(=O)O)NC(=O)[C@H](CCCNC(=N)N)NC(=O)[C@H](C)NC(=O)[C@H](C)NC(=O)[C@H](CCC(N)=O)NC(=O)[C@H](CCC(=O)O)NC(=O)[C@H](CCC(=O)O)NC(=O)[C@H](CC(C)C)NC(=O)[C@H](Cc1ccc(O)cc1)NC(=O)[C@H](CO)NC(=O)[C@H](CO)NC(=O)[C@@H](NC(=O)[C@H](CC(=O)O)NC(=O)[C@H](CO)NC(=O)[C@@H](NC(=O)[C@H](Cc1ccccc1)NC(=O)[C@@H](NC(=O)CNC(=O)[C@H](CCC(=O)O)NC(=O)[C@H](Cc1c[nH]c2ccccc12)NC(=O)CCc1c[nH]cn1)[C@@H](C)O)[C@@H](C)O)C(C)C)C(=O)N[C@@H](C)C(=O)N[C@@H](Cc1c[nH]c2ccccc12)C(=O)N[C@@H](CC(C)C)C(=O)N[C@H](C(=O)N[C@@H](CCCNC(=N)N)C(=O)NCC(=O)N[C@@H](CCCNC(=N)N)C(=O)N[C@@H](CCCCNC(=O)COCCOCCNC(=O)COCCOCCNC(=O)CC[C@H](NC(=O)CCCCCCCCCCCCCCCCC(=O)O)C(=O)O)C(=O)O)C(C)C [NNC5840]
In vivo
  half-life: 1300 min
GLP-1R [1]
  EC50: 0.0192 nM
GLP-1R [2]
  EC50: 20.1 nM
GLP-1R [3]
  EC50: 73.9 nM
